Measured values from patent US20080293683A1, “Hormone Replacement Therapy” (University of Kansas Medical Center, priority 2007, published 2008).
Like-named read-outs stand apart in the source and are kept apart here.

Key:
recombinant human ERα = target: T1, recombinant human ERα (Homo sapiens, UniProt P03372); experiment: ERα binding assay: competition of [3H]E2 binding by competing estrogens; conditions: for RBAα % (relative binding affinity for ERα, of E2): calculated against E2 = 100; for RBAα/RBAβ: ratio of relative binding affinities ERα over ERβ; for RBA for ERα, % of E1: relative to E1
T1 construct: purchased PanVera Corporation (Madison, Wis.); host or cells: baculovirus-mediated expression system
T1 sequence (P03372 1-595): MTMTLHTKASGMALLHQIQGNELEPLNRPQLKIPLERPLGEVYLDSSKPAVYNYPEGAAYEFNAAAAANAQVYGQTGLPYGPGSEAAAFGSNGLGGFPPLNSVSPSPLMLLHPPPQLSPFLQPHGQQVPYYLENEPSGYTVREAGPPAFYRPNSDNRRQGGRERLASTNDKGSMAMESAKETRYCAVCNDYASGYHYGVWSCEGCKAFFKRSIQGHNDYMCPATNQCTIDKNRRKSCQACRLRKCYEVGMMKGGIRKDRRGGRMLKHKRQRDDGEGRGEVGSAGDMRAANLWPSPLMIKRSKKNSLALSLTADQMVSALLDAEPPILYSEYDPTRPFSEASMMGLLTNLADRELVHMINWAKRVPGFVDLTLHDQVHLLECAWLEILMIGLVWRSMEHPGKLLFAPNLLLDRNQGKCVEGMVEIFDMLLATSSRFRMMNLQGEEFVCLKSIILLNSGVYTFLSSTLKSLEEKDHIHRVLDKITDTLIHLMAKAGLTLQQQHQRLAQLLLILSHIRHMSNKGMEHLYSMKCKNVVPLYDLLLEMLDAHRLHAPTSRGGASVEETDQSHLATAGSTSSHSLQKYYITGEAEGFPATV
From the text: (§1) The recombinant human ERα and ERβ proteins and bovine serum albumin (BSA) were obtained from PanVera Corporation (Madison, Wis.). According to the supplier, the recombinant human ERα and ERβ were produced in a baculovirus-mediated expression system, and they were soluble and functionally active, with post-translational modifications similar to those found in mammalian cells. See Reid et al., Human estrogen receptor-α: Regulation by synthesis, modification and degradation, Cell. Mol. Life.
(§2) The following buffer solutions were used in the ER binding assays, and they were prepared beforehand and stored at 4° C. The binding buffer consisted of 10% glycerol, 2 mM dithiothreitol, 1 mg/mL BSA and 10 mM Tris-HCl at pH 7.5. The ERα washing buffer contained 40 mM Tris-HCl and 100 mM KCl (pH 7.4), but the ERG washing buffer contained only 40 mM Tris-HCl (adjusted to pH 7.4). The 50% hydroxylapatite slurry was prepared first by vigorously mixing 10 g hydroxylapatite with 60 mL of the Tris-HCl solution (50 mM, pH 7.4). Hydroxylapatite was then allowed to settle for 20 minutes at room temperature, and the supernatant was decanted. The above procedures were repeated 10 times, and afterwards hydroxylapatite was kept in the 50 mM Tris-HCl solution overnight at 4° C. Hydroxylapatite slurry was then adjusted to an approximate final concentration of 50% (v/v) using the same Tris-HCl solution and stored at 4° C., and the slurry was stable for up to several months.
(§3) Note that all of the estrogens were initially dissolved in pure ethanol to a stock concentration of 1 mM, and then further diluted to 100 μM with 20% aqueous ethanol. […] Immediately before the addition of the ERα or ERβ protein, it was diluted in the binding buffer and mixed gently with repetitive pipettings. […] The incubation mixture was then mixed gently and thoroughly with repetitive pipettings. […] The binding mixture was incubated at room temperature for two hours. At the end of the incubation, 100 μL of the hydroxylapatite slurry was added to each tube and the tubes were incubated on ice for 15 minutes with 3 times of brief vortexing. An aliquot (1 mL) of the appropriate washing buffer was added, mixed, and centrifuged at 10,000 g for five minutes, and the supernatants were discarded. This wash step was repeated twice. Hydroxylapatite pellets were then resuspended in 200 μL ethanol (followed by another rinse with 200 μL ethanol), and then the content was transferred to scintillation vials (containing 4 mL of the scintillation fluid) for measurement of ^3H-radioactivity with a liquid scintillation counter (Packard Tri-CARB 2900 TR; Downers Grove, Ill.).
(§4) To calculate the specific binding (pmol/mL) of the human ERα or ERβ protein at each concentration point, the following equation was used: […]
(§5) When a lower radioligand concentration is used, the corresponding IC50 value will also be relatively lower, but when the radioligand concentration increases, the corresponding IC50 value will also increase. […] Since the RBA value is a parameter that is independent of the radioligand concentration used, we thus have placed more emphasis on the RBA values instead of the absolute IC50 values in interpreting the physiological meanings of the data from in vitro receptor competition assays.

recombinant human ERβ = target: T2, recombinant human ERβ (Homo sapiens, UniProt Q92731); experiment: ERβ binding assay: competition of [3H]E2 binding by competing estrogens; conditions: for RBAβ (%) (relative binding affinity for ERβ, of E2): calculated against E2 = 100
T2 construct: purchased PanVera Corporation (Madison, Wis.); host or cells: baculovirus-mediated expression system
T2 sequence (Q92731 whole entry): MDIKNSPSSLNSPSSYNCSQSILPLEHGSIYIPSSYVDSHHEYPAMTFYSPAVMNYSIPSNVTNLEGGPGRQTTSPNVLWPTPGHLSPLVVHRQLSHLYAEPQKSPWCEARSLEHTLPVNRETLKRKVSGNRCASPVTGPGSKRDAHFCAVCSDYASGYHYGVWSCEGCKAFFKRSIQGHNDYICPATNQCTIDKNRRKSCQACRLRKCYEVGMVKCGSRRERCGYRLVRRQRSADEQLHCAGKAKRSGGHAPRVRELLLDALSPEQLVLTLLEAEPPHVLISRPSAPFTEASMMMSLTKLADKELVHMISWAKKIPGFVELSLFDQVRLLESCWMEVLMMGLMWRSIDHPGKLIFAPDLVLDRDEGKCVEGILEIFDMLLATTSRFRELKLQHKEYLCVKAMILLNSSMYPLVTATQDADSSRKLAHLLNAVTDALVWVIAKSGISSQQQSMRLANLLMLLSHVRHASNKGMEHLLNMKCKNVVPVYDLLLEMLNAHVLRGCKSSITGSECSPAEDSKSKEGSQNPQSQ
From the text: as §1, §2, §3, §4, §5

Structure (SMILES) | RBAα % (relative binding affinity for ERα, of E2) (recombinant human ERα) | RBAα/RBAβ (recombinant human ERα) | IC50 (recombinant human ERα; read-out: ERα IC50) | RBAβ (%) (relative binding affinity for ERβ, of E2) (recombinant human ERβ) | IC50 (recombinant human ERβ; read-out: ERβ IC50) | also measured
CC12CCC3c4ccc(O)cc4C(=O)CC3C1CCC2=O (centres unmarked) [6-Keto-E1, 6-Ketoestrone] | 2% | 2 | 490 nM | 1% | 891 nM | RBAα/RBAβ (recombinant human ERα; listed as 6-ketoestrone): about 2; RBA for ERα, % of E1 (recombinant human ERα): 23%; RBA for ERβ, % of E1 (recombinant human ERβ; relative to E1): 50%
C[C@@]12C=CC[C@H]1[C@@H]1CCc3cc(O)ccc3[C@H]1CC2 [16-Estratetraen, 1,3,5(10),16-Estratetraen-3-ol] | 35% | 0.4 | 31.6 nM | 80% | 14.1 nM | –
C[C@]12C[C@H](O)[C@@H]3c4ccc(O)cc4CC[C@H]3[C@@H]1CCC2=O [11β-OH-E1, 11β-Hydroxyestrone] | – | – | > 1000 nM | – | > 1000 nM | –
C[C@]12CC[C@@H]3c4ccc(O)cc4CC[C@H]3[C@@H]1C[C@@H](O)C2=O [16α-OH-E1, 16α-Hydroxyestrone] | – | 0.1 | – | 35% | – | IC50 (recombinant human ERα): 56.2 nM; binding affinity for ERα (in words) (recombinant human ERα): twice as high as that of E1; IC50 (recombinant human ERβ): 25.1 nM; binding affinity for ERβ, fold higher than E1 (recombinant human ERβ; relative to E1): 18 fold
CC12CCC3c4ccc(O)cc4CCC3C1CC(=O)C2=O (centres unmarked) [16-Keto-E1, 16-Ketoestrone] | 2% | 0.2 | 631 nM | 10% | 89.1 nM | RBA for ERα, % of E1 (recombinant human ERα): 18%; RBA for ERβ, % of E1 (recombinant human ERβ; relative to E1): 501%; binding affinity for ERβ, fold higher than E1 (recombinant human ERβ; relative to E1): five-fold higher; relative preference for ERβ over ERα, times higher than E1 (recombinant human ERβ; relative to E1): approximately 25 times
COc1cc2c(cc1OC)C1CCC3(C)C(O)CCC3C1CC2 (stereo not drawn) [2,3-diMeO-E2, 17β-Estradiol 2,3-dimethyl ether] | – | – | > 1000 nM | – | > 1000 nM | –
COc1cc2c(cc1O)[C@H]1CC[C@]3(C)C(=O)CC[C@H]3[C@@H]1CC2 [2-OH-3-MeO-E1, 2-Hydroxyestrone 3-methyl ether] | – | – | > 1000 nM | – | > 1000 nM | binding affinity for ERα (in words) (recombinant human ERα; concentrations up to 1000 nM): did not have appreciable binding affinity; binding affinity for ERβ (in words) (recombinant human ERβ; concentrations up to 1000 nM): did not have appreciable binding affinity
C[C@]12CC[C@@H]3c4ccc(O)c(Br)c4CC[C@H]3[C@@H]1CC[C@@H]2O [4-Br-E2, 4-Bromoestradiol] | 7% | 0.2 | 159 nM | 35% | 25.1 nM | preference of binding affinity for ERβ over ERα (recombinant human ERβ; ERβ over ERα): about 5 fold
CC12CCCC1C1CCc3cc(O)ccc3C1CC2 (centres unmarked) [17-Desoxy-E2, 17-Desoxyestradiol] | 16% | 0.4 | 70.8 nM | 45% | 19.9 nM | –
CC12CCC3c4ccc(O)cc4C(=O)CC3C1CCC2O (centres unmarked) [6-Keto-E2, 6-Ketoestradiol] | 71% | 1.3 | – | 56% | – | IC50 (recombinant human ERα): 15.9 nM; RBAα/RBAβ (recombinant human ERα; listed as 6-ketoestradiol): about 1.3; IC50 (recombinant human ERβ): 15.9 nM
COc1cc2c(cc1O)CC[C@@H]1[C@@H]2CC[C@]2(C)[C@@H](O)CC[C@@H]12 [2-MeO-E2, 2-Methoxyestradiol] | 2% | 2 | – | 1% | – | IC50 (recombinant human ERα; [3H]E2 10 nM, competitor up to 1000 nM, read-out: ERα IC50): 501 nM; RBAα/RBAβ (recombinant human ERα; listed as 2-methoxyestradiol): about 2; IC50 (recombinant human ERβ; [3H]E2 10 nM, competitor up to 1000 nM, read-out: ERβ IC50): 631 nM
